{
  "source": "patent US8383647B2",
  "about": "“Quinoline derivative” (Takeda Pharmaceutical Company Limited, priority 2009, dated 2013)",
  "key": {"[1]": {"target": "human SLC-1 (Homo sapiens, UniProt Q99705)", "sequence (Q99705 whole entry)": "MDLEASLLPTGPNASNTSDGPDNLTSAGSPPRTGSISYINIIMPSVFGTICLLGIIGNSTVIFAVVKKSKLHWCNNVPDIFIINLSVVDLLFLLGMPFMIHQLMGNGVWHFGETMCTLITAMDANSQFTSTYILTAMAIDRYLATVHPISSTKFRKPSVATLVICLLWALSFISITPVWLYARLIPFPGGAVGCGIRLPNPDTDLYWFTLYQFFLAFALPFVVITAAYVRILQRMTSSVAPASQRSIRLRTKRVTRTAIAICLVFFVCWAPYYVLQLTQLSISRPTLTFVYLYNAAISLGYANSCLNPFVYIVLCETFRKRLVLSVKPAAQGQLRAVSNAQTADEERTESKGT", "assay": "MCH receptor antagonistic activity (inhibitory activity, Experimental Example 1)", "format": "biochemical"}, "[2]": {"target": "rat SLC-1 (Rattus norvegicus, UniProt P97639)", "sequence (P97639 whole entry)": "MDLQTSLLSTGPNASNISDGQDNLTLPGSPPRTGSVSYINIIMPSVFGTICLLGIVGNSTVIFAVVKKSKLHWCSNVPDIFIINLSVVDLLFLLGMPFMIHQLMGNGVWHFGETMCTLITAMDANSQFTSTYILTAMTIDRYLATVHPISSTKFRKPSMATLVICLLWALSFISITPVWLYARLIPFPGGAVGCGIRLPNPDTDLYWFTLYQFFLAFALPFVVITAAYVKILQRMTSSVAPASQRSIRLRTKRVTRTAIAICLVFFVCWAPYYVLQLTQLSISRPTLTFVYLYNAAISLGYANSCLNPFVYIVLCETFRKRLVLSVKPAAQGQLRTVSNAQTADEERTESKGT", "assay": "MCH receptor antagonistic activity (inhibitory activity, Experimental Example 1)", "format": "biochemical"}, "[3]": {"test_system": "Male F344/Jcl rats fed on high-fat diet", "assay": "Evaluation of anorectic effect using male F344/Jcl rats fed on high-fat diet", "format": "in vivo", "details": "10 mg/kg by gavage, two administrations; food intake from initial administration to 48 hr; relative to control group; obese rat model", "protocol": "Male F344/Jcl rats (42-week-old) loaded with a high-fat diet (Research Diets: D12451) from 5 weeks of age were used. From 2 weeks before the start of experiment, the rats were independently raised, a powder high-fat diet (Research Diets: D12451M) was given, tap water (0.5 mL) was administered for acclimation, and thereby the rats were habituated. The food intake from 14:00 the day before the start of experiment to 9:00 the next day was measured, and the rats were grouped based on the food intake and the body weight of the previous day as indices. On the day of the start of experiment and the next day at 16:00, 0.5% methylcellulose solution was administered by gavage to the control group, and 0.5% methylcellulose suspension (10 mg/kg) of the compound was administered by gavage to the compound administration group at 2 mL/kg (6 per group for both control group and compound administration group). The food intake from the initial administration to 48 hr later was measured. The food intake inhibition rate of each compound administration group to the control group was calculated."}, "[4]": {"target": "T1, HERG (Homo sapiens, UniProt Q12809)", "T1 construct": "host or cells: HERG.T.HEK (HEK cells, Geneticin-selected)", "T1 sequence (Q12809 whole entry)": "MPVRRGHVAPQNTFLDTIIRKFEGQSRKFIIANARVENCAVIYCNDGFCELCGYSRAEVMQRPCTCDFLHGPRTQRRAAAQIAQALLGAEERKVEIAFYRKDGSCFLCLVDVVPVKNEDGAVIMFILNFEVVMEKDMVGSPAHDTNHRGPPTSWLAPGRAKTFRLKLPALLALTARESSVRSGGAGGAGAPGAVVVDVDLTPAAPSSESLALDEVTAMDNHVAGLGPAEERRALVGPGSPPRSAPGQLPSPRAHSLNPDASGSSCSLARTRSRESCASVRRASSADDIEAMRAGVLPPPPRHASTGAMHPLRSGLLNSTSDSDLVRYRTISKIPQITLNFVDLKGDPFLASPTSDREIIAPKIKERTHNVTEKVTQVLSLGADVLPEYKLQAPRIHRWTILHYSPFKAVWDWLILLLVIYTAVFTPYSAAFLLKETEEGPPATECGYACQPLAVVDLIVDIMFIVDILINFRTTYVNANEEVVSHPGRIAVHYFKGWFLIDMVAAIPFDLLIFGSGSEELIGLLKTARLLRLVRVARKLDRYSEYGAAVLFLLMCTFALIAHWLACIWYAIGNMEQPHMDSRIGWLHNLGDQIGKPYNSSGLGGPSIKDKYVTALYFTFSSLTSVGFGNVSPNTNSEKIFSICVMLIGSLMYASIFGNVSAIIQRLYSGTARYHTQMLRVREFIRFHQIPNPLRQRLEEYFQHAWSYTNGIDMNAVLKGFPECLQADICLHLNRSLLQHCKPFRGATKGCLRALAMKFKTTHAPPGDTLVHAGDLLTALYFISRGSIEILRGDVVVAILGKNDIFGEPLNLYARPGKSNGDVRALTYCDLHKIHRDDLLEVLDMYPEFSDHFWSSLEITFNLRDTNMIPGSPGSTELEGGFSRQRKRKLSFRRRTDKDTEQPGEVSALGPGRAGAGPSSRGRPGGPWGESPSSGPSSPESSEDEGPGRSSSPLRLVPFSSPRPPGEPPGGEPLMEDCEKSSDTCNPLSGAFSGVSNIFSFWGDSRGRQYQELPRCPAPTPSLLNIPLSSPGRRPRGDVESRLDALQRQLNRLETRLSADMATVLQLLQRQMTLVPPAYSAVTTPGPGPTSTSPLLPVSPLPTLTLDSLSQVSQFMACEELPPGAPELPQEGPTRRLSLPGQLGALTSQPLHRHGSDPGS", "assay": "Evaluation of HERG inhibitory activity (whole-cell patch clamp, HERG.T.HEK cells)", "format": "cell-based", "details": "peak tail current", "excerpt": "MEM medium, MEM nonessential amino acid solution, sodium pyruvate solution and G418 sulfate solution (Geneticin) were purchased from Invitrogen Corporation (Carlsbad, Calif.). Bovine serum albumin (BSA, Fatty Acid Free) was a product of Wako Pure Chemical Industries, Ltd. (Osaka, Japan). Fetal bovine serum (FCS) was a product of Trau Scientific Ltd. (Melbourne, Australia).\nAs HERG expression cell HERG.T.HEK, the cell obtained from Wisconsin ALUMNI Research Foundation was used. HERG.T.HEK was maintained and passaged at 37° C. in the presence of 5% CO2 using an MEM medium containing 10% FCS, 1 mM MEM nonessential amino acid, 1 mM sodium pyruvate and 500 μg/ml Geneticin.\n80-90% confluent cells were collected by a trypsin treatment and plated on an IVF dish (Falcon, Franklin Lakes, N.J.). After 2-3 hr, cells were adhered to a glass electrode (resistance value 2-3 MΩ) filled with an electrode internal fluid (7 mM NaCl, 130 mM KCl, 1 mM MgCl2, 5 mM HEPES, 5 mM EGTA, 5 mM ATP-Na: pH 7.2) while perfusing with an extracellular fluid (137 mM NaCl, 4 mM KCl, 1 mM MgCl2, 1.8 mM CaCl2, 10 mM HEPES, 11 mM dextrose: pH 7.4), using a patch clamp amplifier AXOPATCH 200B (Axon instruments, Foster City, Calif.), whereby formation of whole-cell configuration and stimulation by voltage clamp protocol were performed (holding potential −75 mV, primary voltage 10 mV: 0.5 sec, secondary voltage −40 mV: 0.5 sec, stimulation frequency 5 sec (Example 31 and Example 50) or 10 sec (Comparative Example 1 and Comparative Example 2). A preliminary stimulation was applied and the HERG electric current value (peak tail current) was measured when the electric current waveform was stabilized.\nFor measurement of the HERG electric current with addition of the test compound, the cells were first perfused with the extracellular fluid and, when the waveform was stabilized, the cells were perfused with an extracellular fluid containing 10 μm of a test compound. When the electric current waveform was stabilized under respective perfuse conditions, the HERG electric current was measured.\nThe HERG electric current inhibitory rate (%) of the test compound was calculated with the HERG electric current value without addition of the test compound as 100%."}, "[5]": {"test_system": "HepG2 cells", "assay": "Evaluation of PLsis (NBD-PE uptake)", "format": "cell-based", "details": "24 hr exposure, relative to 10 μM Amiodarone, maximum value per unit concentration", "protocol": "DMEM medium, L-glutamine, penicillin-streptomycin, pyruvic acid, and N-(7-nitrobenz-2-oxa-1,3-diazol-4-yl)-1,2-hexadecanoyl-sn-glycero-3-phosphoethanolamine triethylammonium salt (NBD-PE) were purchased from Invitrogen Corporation. As bovine serum albumin (BSA), a product of Thermo Trace Ltd. (Melbourne, Australia) was used, and as Amiodarone, a product of ICN (Costa Mesa, Calif.) was used. A test compound was used in the form of a 10 mM DMSO solution.\nFBS was added at a final concentration of 5 vol % to DMEM medium supplemented with L-glutamine, pyruvic acid and penicillin-streptomycin and subjected to the experiment. Culture was performed using 5% carbon dioxide gas-95% air as a gas phase in a CO2 incubator at 37° C. HepG2 cells were suspended in a culture medium at 50×10^4 cells/mL, plated in a 96 well plate at 50 μL/well and precultured for 24 hr. After preculture, the culture medium was removed, a culture medium containing 60 μm NBD-PE was added at 50 μL/well, and a culture medium containing 0, 6 μM or 20 μM test compounds were each added at 50 μL/well to HepG2 cells, and the cells were cultured for 24 hr. As a positive control, Amiodarone was used at a final concentration of 10 μM.\nAfter exposure to the test compound for 24 hr, the fluorescence intensity (Ex. 485 nm, Em. 538 nm) of NBD-PE uptaken by the cells was measured by a fluorometer. The measurement value with addition of 0 μM test compound solution was subtracted as a blank, a relative value to the measurement value with addition of 10 μm Amiodarone was calculated, and the maximum value per unit concentration of the test compound was obtained as a phospholipidosis (PLsis) induction potential."}},
  "note": "Values joined by “and” are separate entries in the source; they are usually repeats but may differ in a detail not shown here. Identical values can stand only once. Marks after values point to notes of the source that are not given here.",
  "data": [
    {"smiles": "Cc1c(NC(=O)c2ccc(OC[C@@H]3CCCO3)cc2)ccc2cc(CNC3CCOCC3)cnc12", "note": "[Example 31, N-{8-methyl-3-[(tetrahydro-2H-pyran-4-ylamino)methyl]quinolin-7-yl}-4-[(2S)-tetrahydrofuran-2-ylmethoxy]benzamide]", "values": [
      {"measurement": "IC50", "setting": "[1]", "value": 3.1, "unit": "nM"},
      {"measurement": "IC50", "setting": "[2]", "value": 4.3, "unit": "nM"},
      {"measurement": "food intake inhibition rate (%)", "setting": "[3]", "value": "24.8*** %"},
      {"measurement": "HERG electric current inhibitory rate (%) of 10 μM compound", "setting": "[4]", "value": 9.8, "unit": "%"},
      {"measurement": "PLsis induction potential", "setting": "[5]", "value": 1.7},
      {"measurement": "melting point", "value": "158 to 159", "unit": "°C"}
    ]},
    {"smiles": "Cc1c(NC(=O)c2ccc(OC[C@@H]3CCCO3)cc2)ccc2cc(CN[C@H]3CC[C@](C)(O)CC3)cnc12", "note": "[Example 50, N-(3-{[(trans-4-hydroxy-4-methylcyclohexyl)amino]methyl}-8-methylquinolin-7-yl)-4-[(2S)-tetrahydrofuran-2-ylmethoxy]benzamide]", "values": [
      {"measurement": "IC50", "setting": "[1]", "value": 2.9, "unit": "nM"},
      {"measurement": "IC50", "setting": "[2]", "value": 3.9, "unit": "nM"},
      {"measurement": "food intake inhibition rate (%)", "setting": "[3]", "value": "30.3*** %"},
      {"measurement": "HERG electric current inhibitory rate (%) of 10 μM compound", "setting": "[4]", "value": 2.1, "unit": "%"},
      {"measurement": "PLsis induction potential", "setting": "[5]", "value": 1.4},
      {"measurement": "melting point", "value": "165 °C and 169 °C"}
    ]}
  ]
}
